Data published in PubChem BioAssay (NCI).
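Five compound concentrations were applied to cells in 96-well plates for 48 hours; endpoints were derived by simple linear interpolation of the resulting dose-response curve. TGI is the concentration that stops growth completely.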

Key:
Test in all cases: NCI tumour cell line growth inhibition, 48 h
[1] = system: SF-539 CNS
[2] = system: SNB-19 CNS
[3] = system: A498 renal
[4] = system: SF-268 CNS
[5] = system: UO-31 renal
[6] = system: SN12C renal
[7] = system: SK-MEL-28 melanoma
[8] = system: PC-3 prostate
[9] = system: HCT-15 colon
[10] = system: MCF7 breast
[11] = system: SK-MEL-2 melanoma
[12] = system: U251 CNS
[13] = system: IGROV1 ovarian
[14] = system: HS 578T breast
[15] = system: MOLT-4 leukemia
[16] = system: UACC-257 melanoma
[17] = system: HOP-92 NSCLC
[18] = system: LOX IMVI melanoma
[19] = system: MDA-MB-231 breast
[20] = system: SR leukemia
[21] = system: SK-MEL-5 melanoma
[22] = system: KM12 colon
[23] = system: NCI-H460 lung
[24] = system: OVCAR-5 ovarian
[25] = system: MDA-MB-435
[26] = system: NCI-H226 lung
[27] = system: 786-0 renal
[28] = system: DU-145 prostate
[29] = system: SF-295 CNS
[30] = system: CAKI-1 renal
[31] = system: RXF 393 renal
[32] = system: NCI-H522 lung
[33] = system: BT-549 breast
[34] = system: EKVX NSCLC
[35] = system: OVCAR-8 ovarian
[36] = system: MDA-N
[37] = system: MALME-3M melanoma
[38] = system: HCC-2998 colon
[39] = system: NCI-H23 lung
[40] = system: RPMI-8226 leukemia
[41] = system: NCI/ADR-RES ovarian
[42] = system: SK-OV-3 ovarian
[43] = system: A549 NSCLC
[44] = system: M14 melanoma
[45] = system: OVCAR-3 ovarian
[46] = system: SW-620 colon
[47] = system: UACC-62 melanoma
[48] = system: TK-10 renal
[49] = system: K-562 leukemia
[50] = system: T-47D breast
[51] = system: COLO 205 colon
[52] = system: SNB-75 CNS
[53] = system: HCT-116 colon
[54] = system: HOP-62 NSCLC
[55] = system: ACHN renal
[56] = system: HT29 colon
[57] = system: OVCAR-4 ovarian
[58] = system: HL-60(TB) leukemia
[59] = system: CCRF-CEM leukemia

Molecule `COc1ccc2c(c1)-c1nc(=S)n(CCN(C)C)c3ccc([N+](=O)[O-])c(c13)N2` has a TGI [1] of 2.5 µM, a TGI [2] of 3.87 µM and a TGI [3] of 24.5 µM. For the same molecule, the TGI [4] was 2.16 µM, the TGI [5] was 13.1 µM and the TGI [6] was 2.05 µM. The TGI [7] was 2.88 µM, the TGI [8] was 4.36 µM and the TGI [9] was 4.76 µM. It also gave a TGI [10] of 3.43 µM, a TGI [11] of 24.3 µM and a TGI [12] of 2.44 µM. It also gave a TGI [13] of 2.55 µM, a TGI [14] of 7.69 µM and a TGI [15] of 0.741 µM. For the same molecule, the TGI [16] was 5.92 µM, the TGI [17] was 27.7 µM and the TGI [18] was 2.29 µM. It also gave a TGI [19] of 2.68 µM, a TGI [20] of 2.07 µM and a TGI [21] of 7.61 µM. It also gave a TGI [22] of 6.27 µM, a TGI [23] of 1.71 µM and a TGI [24] of 8.04 µM. The TGI [25] was 7.82 µM, the TGI [26] was 24.1 µM and the TGI [27] was 1.8 µM. The TGI [28] was 2.93 µM, the TGI [29] was 18.3 µM and the TGI [30] was 7.61 µM. For the same molecule, the TGI [31] was 3.3 µM, the TGI [32] was 2.04 µM and the TGI [33] was 24 µM. For the same molecule, the TGI [34] was 7.29 µM, the TGI [35] was 2.2 µM and the TGI [36] was 2.19 µM. The TGI [37] was 2.49 µM, the TGI [38] was 2.15 µM and the TGI [39] was 17.9 µM. The TGI [40] was 2.76 µM, the TGI [41] was 3.61 µM and the TGI [42] was 18 µM. For the same molecule, the TGI [43] was 2.28 µM, the TGI [44] was 7.43 µM and the TGI [45] was 19.3 µM. The TGI [46] was 3.07 µM, the TGI [47] was 23.5 µM and the TGI [48] was 16.5 µM. It also gave a TGI [49] of 2.13 µM, a TGI [50] of 12.5 µM and a TGI [51] of 5.97 µM. For the same molecule, the TGI [52] was 2.7 µM, the TGI [53] was 1.56 µM and the TGI [54] was 2.24 µM. For the same molecule, the TGI [55] was 4.97 µM, the TGI [56] was 2.25 µM and the TGI [57] was 13.3 µM.

`O=c1n(CCCN2CCOCC2)nc2n1-c1ccc3ccccc3c1SC2` was tested, and the TGI [1] was > 100 µM, the TGI [2] was > 100 µM and the TGI [3] was > 100 µM. The TGI [5] was 45.7 µM, the TGI [6] was > 100 µM and the TGI [7] was > 100 µM. For the same molecule, the TGI [8] was > 100 µM, the TGI [58] was 97.8 µM and the TGI [9] was 67.2 µM. For the same molecule, the TGI [10] was > 100 µM, the TGI [11] was > 100 µM and the TGI [12] was > 100 µM. For the same molecule, the TGI [13] was > 100 µM, the TGI [14] was > 100 µM and the TGI [15] was > 100 µM. The TGI [16] was > 100 µM, the TGI [17] was > 100 µM and the TGI [18] was 53 µM. The TGI [20] was > 100 µM, the TGI [21] was 47.7 µM and the TGI [22] was > 100 µM. For the same molecule, the TGI [23] was 81.1 µM, the TGI [24] was > 100 µM and the TGI [25] was > 100 µM. The TGI [26] was > 100 µM, the TGI [27] was 38.3 µM and the TGI [28] was > 100 µM. For the same molecule, the TGI [29] was 42.1 µM, the TGI [59] was > 100 µM and the TGI [30] was > 100 µM. The TGI [31] was > 100 µM, the TGI [32] was 52.3 µM and the TGI [33] was > 100 µM. The TGI [34] was > 100 µM, the TGI [35] was > 100 µM and the TGI [36] was 24.1 µM. For the same molecule, the TGI [40] was 80.8 µM, the TGI [41] was > 100 µM and the TGI [42] was > 100 µM. For the same molecule, the TGI [43] was > 100 µM, the TGI [45] was > 100 µM and the TGI [46] was > 100 µM. For the same molecule, the TGI [47] was 47.2 µM, the TGI [48] was > 100 µM and the TGI [49] was > 100 µM. The TGI [50] was > 100 µM, the TGI [51] was 7.49 µM and the TGI [52] was > 100 µM. The TGI [53] was > 100 µM, the TGI [54] was > 100 µM and the TGI [56] was 41.2 µM. For the same molecule, the TGI [57] was > 100 µM.

For `O=c1[nH]nc(-c2ccc([N+](=O)[O-])cc2)[nH]1`, the TGI [1] was > 100 µM, the TGI [2] was > 100 µM and the TGI [3] was > 100 µM. For the same molecule, the TGI [4] was > 100 µM, the TGI [5] was > 100 µM and the TGI [6] was > 100 µM. The TGI [7] was > 100 µM, the TGI [8] was > 100 µM and the TGI [58] was > 100 µM. The TGI [9] was > 100 µM, the TGI [10] was > 100 µM and the TGI [11] was > 100 µM. The TGI [12] was > 100 µM, the TGI [13] was > 100 µM and the TGI [14] was > 100 µM. For the same molecule, the TGI [15] was > 100 µM, the TGI [16] was > 100 µM and the TGI [17] was > 100 µM. The TGI [18] was > 100 µM, the TGI [20] was > 100 µM and the TGI [22] was > 100 µM. For the same molecule, the TGI [23] was > 100 µM, the TGI [24] was > 100 µM and the TGI [25] was > 100 µM. The TGI [26] was > 100 µM, the TGI [27] was > 100 µM and the TGI [28] was > 100 µM. For the same molecule, the TGI [29] was > 100 µM, the TGI [59] was > 100 µM and the TGI [30] was > 100 µM. For the same molecule, the TGI [31] was > 100 µM, the TGI [32] was > 100 µM and the TGI [33] was > 100 µM. For the same molecule, the TGI [34] was > 100 µM, the TGI [35] was > 100 µM and the TGI [36] was > 100 µM. For the same molecule, the TGI [37] was > 100 µM, the TGI [38] was > 100 µM and the TGI [39] was > 100 µM. The TGI [40] was > 100 µM, the TGI [41] was > 100 µM and the TGI [43] was > 100 µM. The TGI [44] was > 100 µM, the TGI [45] was > 100 µM and the TGI [46] was > 100 µM. The TGI [47] was > 100 µM, the TGI [48] was > 100 µM and the TGI [49] was > 100 µM. The TGI [50] was > 100 µM, the TGI [51] was > 100 µM and the TGI [52] was > 100 µM. The TGI [53] was > 100 µM, the TGI [54] was > 100 µM and the TGI [55] was > 100 µM. For the same molecule, the TGI [56] was > 100 µM and the TGI [57] was > 100 µM.
